This is an account of results in ChEMBL document CHEMBL4229476, “Studies directed toward the asialoglycoprotein receptor mediated delivery of 5-fluoro-2'-deoxyuridine for hepatocellular carcinoma” (Bioorg Med Chem Lett, 2018).

This assay concerns HepG2. As to the kind of experiment: Cytotoxicity against human HepG2 cells at 1.5 to 200 uM after 72 hrs by WST1 assay. Type of assay: functional, cell-based. Background: Tetrazolium dyes change colour on reduction, which living cells bring about.

The structures appear in SMILES notation. Activity calls are given as the source filed them. The calls are words filed in the database; no cut-off is given here.

Regarding `O=c1[nH]c(=O)n([C@H]2C[C@H](O)[C@@H](CO)O2)cc1F`, the result was Active. The entry for `CC(=O)N[C@H]1[C@H](OCCCCCCNC(=O)CCOCC(COCCC(=O)NCCCCCCO[C@@H]2O[C@H](CO)[C@H](O)[C@H](O)[C@H]2NC(C)=O)(COCCC(=O)NCCCCCCO[C@@H]2O[C@H](CO)[C@H](O)[C@H](O)[C@H]2NC(C)=O)NC(=O)CCCC(=O)NCCCCCCOP(=O)(O)OC[C@H]2O[C@@H](n3cc(F)c(=O)[nH]c3=O)C[C@@H]2O)O[C@H](CO)[C@H](O)[C@@H]1O` is “Active”.
